Test results: paper PMC7464173, “Phosphate Derivatives of 3-Carboxyacylbetulin: SynThesis, In Vitro Anti-HIV and Molecular Docking Study” (Biomolecules, 2020)
Read-outs that look alike come from different tables or passages of the source.

Legend:
[1] = Cytotoxicity, MTT assay in CEM-T4 cells; format: cell-based; settings: human
Procedure: For the determination of compounds’ cytotoxicity, CEM-T4 cells were obtained from the NIH AIDS Reagent Program (NIH, US) and were cultured in RPMI supplemented with 10% FCS (Biochrom) and antibiotics at 37 °C in 5% CO2 on 96-well culture plates. The experiments were carried out in media containing tested compounds in concentrations of the appropriate range. Cultures in a neat medium (RPMI, 10% FCS) were used as a control. Viability of cells was determined after 7 days using the MTT assay in which 10 μL of MTT solution (5 mg/mL) was added to each culture plate well, and cultures were incubated for 3 h at a temperature of 37 °C. After the centrifugation, the supernatant was removed, and DMSO was added for lysis of the cells and to dissolve crystals of formazan. Color intensity was measured with a plate reader at 560 nm.
Newly synthesized compounds 2–5 were evaluated for their activity against HIV-1 in a CEM-T4 cell line. First, a cytotoxicity assessment of the synthesized derivatives was performed using the MTT [3-(4,5-dimethylthiazol-2-yl)-2,5-diphenyltetrazolium bromide]. The results were expressed as CC50 (concentration of compound causing 50% cell death). Anti-HIV activity was expressed as IC50 (concentration of compound causing 50% inhibition of replication) and consisted of measurements of p24 antigen made using the Genscreen ULTRA HIV Ag-Ab Kit.

HIV-1 [2] = assay: Anti-HIV-1 replication activity, p24 antigen ELISA in HIV-infected CEM-T4 cell line; format: cell-based; settings: for IC50: Human immunodeficiency virus 1, CEM-T4, 168 h; for ability to inhibit HIV replication: tested range of concentrations 0.02 to 10 μM; for TI: therapeutic index (selectivity index), the ratio of CC50 to IC50
HIV-1 [3] = tested on: HIV-1; set-up: method as in PMID 31640137; settings: in vitro anti-HIV-1 activity; cited from earlier work
[4] = cytotoxicity; cited from earlier work
[5] = concentration causing 50% cell death, CEM-T4 cells, MTT, 7 days, read-out: CC50
[6] = cytotoxicity values, CEM-T4 cells, read-out: IC50 (cytotoxicity)

For `C=C(C)[C@@H]1CC[C@]2(C(=O)O)CC[C@]3(C)[C@H](CC[C@@H]4[C@@]5(C)CC[C@H](OC(=O)CC(C)(C)C(=O)O)C(C)(C)[C@@H]5CC[C@]43C)[C@@H]12` [BVM, 3-O-(3’,3’-dimethylsuccinyl)betulinic acid, reference compound], the CC50 at 7 days [1] was 29 ± 2.43 µM, the IC50 at 7 days [1] was 29 µM and the IC50 (HIV-1 [2]) was 0.03 ± 0.009 µM.

With `C=C(C)[C@@H]1CC[C@]2(CO)CC[C@]3(C)[C@H](CC[C@@H]4[C@@]5(C)CC[C@H](O)C(C)(C)[C@@H]5CC[C@]43C)[C@@H]12` [Compound 1, Betulin] the CC50 at 7 days [1, 5] was 46 ± 3.01 µM, the IC50 (HIV-1 [2]) was greater than 10 µM and the “ability to inhibit HIV replication” value (HIV-1 [2]) was “did not demonstrate the ability to inhibit HIV replication”.

In the case of `C=C(C)[C@@H]1CC[C@]2(COP(=O)(OCC)OCC)CC[C@]3(C)C(CCC4[C@@]5(C)CC[C@H](O)C(C)(C)C5CC[C@]43C)C12` (some centres unmarked) [Compound 2, 28-Diethoxyphosphorylbetulin], the CC50 at 7 days [1, 5] is reported as 18.3 ± 1.64 µM, the IC50 (HIV-1 [2]) is reported as greater than 10 µM and the “ability to inhibit HIV replication” value (HIV-1 [2]) is reported as “did not demonstrate the ability to inhibit HIV replication”.

Compound `C=C(C)[C@@H]1CC[C@]2(COP(=O)(OCC)OCC)CC[C@]3(C)C(CCC4[C@@]5(C)CC[C@H](OC(=O)CC(C)(C)C(=O)O)C(C)(C)C5CC[C@]43C)C12` (some centres unmarked) [Compound 3, 28-Diethoxyphosphoryl-3-O-(3′,3′-dimethylsuccinyl)betulin] has a CC50 at 7 days [1, 5] of 25.4 ± 1.54 µM, an IC50 at 7 days [1, 6] of 25.4 µM and an IC50 (HIV-1 [2]) of 0.02 ± 0.01 µM. It also gave a TI (HIV-1 [2]) of 1250.

In the case of `C=C(C)[C@@H]1CC[C@]2(COP(=O)(OCC)OCC)CC[C@]3(C)C(CCC4[C@@]5(C)CC[C@H](OC(=O)CC(C)(C)CC(=O)O)C(C)(C)C5CC[C@]43C)C12` (some centres unmarked) [Compound 4, 28-Diethoxyphosphoryl-3-O-(3′,3′-dimethylglutaryl)betulin], the CC50 at 7 days [1, 5] is reported as 19.7 ± 1.64 µM, the IC50 at 7 days [1, 6] is reported as 19.7 µM and the IC50 (HIV-1 [2]) is reported as 0.04 ± 0.01 µM. The TI (HIV-1 [2]) was 500.

Work on `C=C(C)[C@@H]1CC[C@]2(COP(=O)(OCC)OCC)CC[C@]3(C)C(CCC4[C@@]5(C)CC[C@H](OC(=O)CCC(C)(C)C(=O)O)C(C)(C)C5CC[C@]43C)C12` (some centres unmarked) [Compound 5, 28-Diethoxyphosphoryl-3-O-(4′,4′-dimethylglutaryl)betulin] yielded a CC50 at 7 days [1, 5] of 15.1 ± 1.27 µM, an IC50 at 7 days [1, 6] of 15.1 µM and an IC50 (HIV-1 [2]) of 0.22 ± 0.05 µM. It also gave a TI (HIV-1 [2]) of 68.

In the case of `C=C(CP(=O)(OCC)OCC)[C@@H]1CC[C@]2(C(=O)O)CC[C@]3(C)C(CC[C@@H]4[C@@]5(C)CC[C@H](OC(=O)CC(C)(C)C(=O)O)C(C)(C)C5CC[C@]43C)[C@@H]12` (some centres unmarked) [Compound 6, 30-diethoxyphosphoryl-3-O-(3′,3′-dimethylsuccinyl)betulinic acid], the IC50 (HIV-1 [3]) is listed as 0.02 µM and the CC50 [4] is listed as 68 µM.
